From patent US7279548B2, “Identification and isolation of novel polypeptides having WW domains and methods of using same” (Cytogen Corporation, priority 1996, dated 2007) come the findings set out here.

For test [1], the target named is T1, WW domains of WWP2 expressed as GST fusion proteins (Homo sapiens, UniProt O00308).
T1 construct: twelve individual novel WW domains of WWP1, WWP2, WWP3 and WWP4 which were expressed as GST fusion proteins; made in house
In words: ELISA based cross affinity mapping, WW domains of WWP2. It is filed as binding. On the procedure: (§1) The 16 day mouse embryo cDNA expression library was diluted 1:1000 in SM solution (100 mM NaCl, 8 mM MgSOv4, 50 mM Tris HCl pH 7.5, 0.01% gelatin). To a sterile test tube, 2 μl of diluted mouse embryo library, 100 μl of 10 mM CaCl2, 100 μl of 10 mM MgCl2 and 100 μl of BL21(DE3)pLysE bacterial cells (grown overnight) were added and incubated for 30 minutes at 37° C. The contents of the tube were mixed with 3 ml of 0.6% top agarose, containing […] chloramphenicol, and poured onto a 2xYT plate (90 mm diameter). For a large primary screen, 10–20 plates were prepared with 3×10^4 pfu per plate. After 6 hours incubation at 37° C., a nitrocellulose filter soaked in 10 mM isopropyl-β-D-thiogalactopyranoside (IPTG) was overlaid on each plate and incubated 3–6 hours at 37° C. Before the filters were removed from the plates, they were marked asymmetrically with India ink in a 18 gauge syringe needle. The plates were stored at 4° C. until ready for the secondary screen. The filters were washed with PBS (137 mM NaCl, 2.7 mM KCl, 4.3 mM Na2HPO4, 1.4 mM KH2PO4)-0.05% Triton X-100 three times at room temperature, 15 minutes each wash, and then placed in a plastic bag containing non-specific blocking solution (PBS-2% BSA) for one hour. In the meantime, 1 ml of 1 mM biotinylated peptide in PBS-0.1% Tween 20 was added to 20 ml of 1 mg/ml streptavidin-alkaline phosphatase (SA-AP) in PBS-0.1% Tween 20 and incubated at 4° C. for 30 minutes. […] Excess biotin-binding sites would then be blocked by addition of 500 pmol biotin. […] Ten μl of 0.1 mM biotin would then be added, and the solution incubated for an additional 15 min.
(§2) To determine the ligand preferences of the novel WW omain-containing clones described in Sections 6.1 and 6.1.1, as well as addressing the issue of whether peptides containing PPPPY (SEQ ID NO:3)-like motifs derived from a variety of proteins could also serve as recognition units and bind to these clones, a cross affinity mapping experiment was performed (FIGS. 15A–D). The peptides shown in FIGS. 15A–D were synthesized, biotinylated, complexed with streptavidin-alkaline phosphatase, and tested in an ELISA based assay for their ability to bind to the twelve individual novel WW domains of WWP1, WWP2, WWP3 and WWP4 which were expressed as GST fusion proteins. The ELISA based cross-affinity experiments were performed essentially as described by Sparks et al. (1996, Proc. Natl. Acad. Sci. 93:1540–1544) with the following modifications. Briefly, microtiter wells were coated with 1–5 μg of fusion protein in 100 mM NaHCO3, blocked with SuperBlock TBS (Pierce) and washed four times with PBS, 0.05% Tween 20. Specific peptide-streptavidin/alkaline phosphatase complexes were added as above and unbound complexes washed five times with PBS, 0.05% Tween 20. Following addition of PNP substrate (p-nitrophenyl phosphate, Kirkegard & Perry Labs), peptide binding was quantitated after 30 min. at O.D. 405 nm. Relative binding measurements from three independent determinations were assigned to a scale as follows: O.D. units 0–0.5=(−), 0.5–1.0=(+), 1.0–2.0=(++), 2.0–3.0=(+++), >3.0=(++++). Peptide binding to human Fyn and Lyn SH3 and SH2 domains was assessed by a filter binding assay (see Section 6.1 and Sparks et al., 1996, Proc. Natl. Acad. Sci 93:1540–1544). Peptide sequences used in cross-affinity experiments correspond to segments of the following genes: RasGap (Database accession # P20936), AP-2 (P05549), p53BP-2 (U09582), IL-6Rα (P22272), voltage-gated chloride channel CLCN5 (X91906), IL-2Rγ (D111086), RSV (D10652), HTLV-1 (D13784), β-dystroglycan (L19711), Formin (X53599), amiloride-sensitive epithelial Na^+ channel ENaCα (P37089), ENaCβ (X87159) and ENaCγ (X87160), muscarinic acetylcholine receptor M4 AChR (P08173), and c-Abl (P00522). Src and Crk SH3 binding peptide sequences were derived from a phage display random peptide library screen (Section 6.1 and Sparks et al., 1996, Proc. Natl. Acad. Sci. 93:1540–1544).
For orientation: In an ELISA, binding on a coated surface is turned into a signal by an enzyme label.

For test [2], the system named is twelve individual novel WW domains of WWP1, WWP2, WWP3 and WWP4. The test can be described thus: ELISA based cross affinity mapping, whole panel of novel WW domains. It is filed as binding, human. The conditions noted are these: biotinylated peptide-streptavidin/alkaline phosphatase complex, GST fusion proteins. The procedure: as §1, §2
Test [3] deals with T2, WW domains of WWP1 expressed as GST fusion proteins (Homo sapiens, UniProt Q9H0M0).
T2 construct: twelve individual novel WW domains of WWP1, WWP2, WWP3 and WWP4 which were expressed as GST fusion proteins; made in house
The test can be described thus: ELISA based cross affinity mapping, WW domains of WWP1. It is filed as binding. Conditions: GST fusion protein. The procedure: as §1, §2

In test [4] the test system is WW domains of WWP4 expressed as GST fusion proteins. The test can be described thus: ELISA based cross affinity mapping, WW domains of WWP4. Format: binding, human. Conditions: biotinylated peptide-streptavidin/alkaline phosphatase complex; GST fusion proteins; ELISA. The procedure: as §1, §2
In test [5] the test system is WW domains of WWP2 expressed as GST fusion proteins. The test can be described thus: ELISA based cross affinity mapping, WW domains of WWP2. It is filed as binding, human. The conditions noted are these: biotinylated peptide-streptavidin/alkaline phosphatase complex; GST fusion proteins; ELISA. On the procedure:
as §1, §2

Test [6] has as its target T3, WWP3 WW domain expressed as GST fusion protein (Homo sapiens, UniProt Q96QZ7).
T3 construct: made in house
The test can be described thus: ELISA based cross affinity mapping, WWP3 WW domain. The conditions noted are these: biotinylated peptide-streptavidin/alkaline phosphatase complex. Format: binding. On the procedure:
The 16 day mouse embryo cDNA expression library was diluted 1:1000 in SM solution (100 mM NaCl, 8 mM MgSOv4, 50 mM Tris HCl pH 7.5, 0.01% gelatin). To a sterile test tube, 2 μl of diluted mouse embryo library, 100 μl of 10 mM CaCl2, 100 μl of 10 mM MgCl2 and 100 μl of BL21(DE3)pLysE bacterial cells (grown overnight) were added and incubated for 30 minutes at 37° C. The contents of the tube were mixed with 3 ml of 0.6% top agarose, containing […] chloramphenicol, and poured onto a 2xYT plate (90 mm diameter). For a large primary screen, 10–20 plates were prepared with 3×10^4 pfu per plate. After 6 hours incubation at 37° C., a nitrocellulose filter soaked in 10 mM isopropyl-β-D-thiogalactopyranoside (IPTG) was overlaid on each plate and incubated 3–6 hours at 37° C. Before the filters were removed from the plates, they were marked asymmetrically with India ink in a 18 gauge syringe needle. The plates were stored at 4° C. until ready for the secondary screen. The filters were washed with PBS (137 mM NaCl, 2.7 mM KCl, 4.3 mM Na2HPO4, 1.4 mM KH2PO4)-0.05% Triton X-100 three times at room temperature, 15 minutes each wash, and then placed in a plastic bag containing non-specific blocking solution (PBS-2% BSA) for one hour. In the meantime, 1 ml of 1 mM biotinylated peptide in PBS-0.1% Tween 20 was added to 20 ml of 1 mg/ml streptavidin-alkaline phosphatase (SA-AP) in PBS-0.1% Tween 20 and incubated at 4° C. for 30 minutes. As an alternative method of forming multivalent complexes, 50 pmol biotinylated peptide could have been incubated with 2 μg SA-AP (for a biotin:biotin-binding site ratio of 1:1). Excess biotin-binding sites would then be blocked by addition of 500 pmol biotin. As a further alternative, 31.2 μl of 1 mg/ml SA-AP could have been incubated with 15 μl of 0.1 mM biotinylated peptide for 30 min at 4° C. Ten μl of 0.1 mM biotin would then be added, and the solution incubated for an additional 15 min.
as §2, with “Peptide sequences used in cross-affinity experiments correspond to segments of the following genes: RasGap (Database accession # P20936), AP-2 (P05549), p53BP-2 (U09582), IL-6Rα (P22272), voltage-gated chloride channel CLCN5 (X91906), IL-2Rγ (D111086), RSV (D10652), HTLV-1 (D13784), β-dystroglycan (L19711), Formin (X53599), amiloride-sensitive epithelial Na^+ channel ENaCα (P37089), ENaCβ (X87159) and ENaCγ (X87160), muscarinic acetylcholine receptor M4 AChR (P08173), and c-Abl (P00522). Src and Crk SH3 binding peptide sequences were derived from a phage display random peptide library screen (Section 6.1 and Sparks et al., 1996, Proc. Natl. Acad. Sci. 93:1540–1544).” left out

Test [7] relates to WW domains of WWP1 expressed as GST fusion proteins. In words: ELISA based cross affinity mapping, WW domains of WWP1. It is filed as binding, human. Conditions: biotinylated peptide-streptavidin/alkaline phosphatase complex; GST fusion proteins; ELISA. On the procedure:
as §1, §2

The target of test [8] is T4, WW domains of WWP4 expressed as GST fusion proteins (Homo sapiens, UniProt Q96PU5).
T4 construct: twelve individual novel WW domains of WWP1, WWP2, WWP3 and WWP4 which were expressed as GST fusion proteins; made in house
The test can be described thus: ELISA based cross affinity mapping, WW domains of WWP4. Format: binding. Conditions: GST fusion protein. The procedure: as §1, §2

No end group written: not given here.

T3 sequence (Q96QZ7 300-337 limits assumed): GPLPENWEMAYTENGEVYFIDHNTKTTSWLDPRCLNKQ

As for “CLCN5: peptide from the voltage-gated renal chloride channel CLCN5 (X91906) (SPPLPPYTPP)”, the “binding to individual WW domain WWP2.4” value in test [1] (GST fusion protein) was “appreciable binding”. Besides, the “binding to the novel WW domains (WWP1, WWP2, WWP3, WWP4 panel)” value in test [2] is listed as “bound to WW domains from one or more of the four novel clones”. Also, in test [3], the “binding to individual WW domain WWP1.4” value is given as “appreciable binding”.

As for “WBP-1-Pro2: alanine substitution variant of WBP-1 at the second proline residue of the PPPPY motif (SGSGPGTPAPPYTVGPGY)”, the “binding to individual WW domain WWP2.3” value in test [1] (GST fusion protein) is recorded as “did not abolish binding”. Besides, the “binding to WW domains of WWP4” value in test [4] is on record as “loss of binding activity”. Moreover, in test [3], the “binding to individual WW domain WWP1.2” value is given as “did not abolish binding”.

For the substance “WBP-2A-Pro4: WBP-2A peptide with substitution of the third proline residue (SGSGYVQPPPAPYPGPM)”, in test [5], the “binding to WW domains of WWP2” value is recorded as “absolutely essential for binding”. For the same substance, the “binding to WWP3 WW domain” value in test [6] is given as “absolutely essential for binding”. Besides, the “binding to WW domains of WWP4” value in test [4] is “absolutely essential for binding”. In test [7], the “binding to WW domains of WWP1” value is reported as “absolutely essential for binding”.

For “bWW059: biotinylated peptide corresponding to the wild-type PPPPY-like motif in the HECT domain of WWP4 (NRLDLPPYETFED; also: biotinylated, site not given here)”, in test [1] (GST fusion protein), the “binding to individual WW domain WWP2.1” value was “binds”, the “binding to individual WW domain WWP2.2” value is given as “binds” and the “binding to individual WW domain WWP2.4” value is “binds”. Further, the “O.D. after 30 minutes at 405 nm” value in test [1] (individual WW domain WW2.4, GST fusion protein) is 3.0. For the same substance, the “binding to WW domains of WWP2” value in test [5] is on record as “bind to individual WW domains”. Also, the “binding to WW domains of WWP4” value in test [4] was “bind to individual WW domains”. Further, in test [8], the “binding to individual WW domain WWP4.1” value is recorded as “binds”, the “binding to individual WW domain WWP4.2” value was “binds” and the “binding to individual WW domain WWP4.3” value is “binds”. In test [7], the “binding to WW domains of WWP1” value was “bind to individual WW domains”. Also, in test [3], the “binding to individual WW domain WWP1.1” value is listed as “binds” and the “binding to individual WW domain WWP1.4” value is reported as “binds”.

As to biotin - PGTPPPKYNTLRL [ENaCγ], in test [5], the “binding to WW domains of WWP2” value is on record as “positive interaction”. Besides, in test [6], the “binding to WWP3 WW domain” value is “positive interaction”. Besides, in test [4], the “binding to WW domains of WWP4” value was “positive interaction”. Moreover, the “binding to WW domains of WWP1” value in test [7] is “positive interaction”.

Turning to biotin - PGTPPPNYDSLRL [ENaCβ], the “binding to WW domains of WWP2” value in test [5] was “positive interaction”. The “binding to WWP3 WW domain” value in test [6] is reported as “positive interaction”. In test [4], the “binding to WW domains of WWP4” value is reported as “positive interaction”. Besides, in test [7], the “binding to WW domains of WWP1” value is “positive interaction”.
